≈ marks a conversion by molar mass, not a printed value.
What was measured:
[1] = Steady-state volume of distribution of compound was determined after i.v. administration; assay type: ADME, organism-based; conditions: rat, in vivo, iv; for Vd: read-out: VSS
Cathepsin L2 = molecular target: T1, Cathepsin L2 (Homo sapiens, UniProt O60911); assay: Inhibition of 2 µM Cbz-Phe-Arg-AMC binding to human cathepsin V activity in fluorescence assay with 100 mM NaOAc
T1 sequence (O60911 whole entry): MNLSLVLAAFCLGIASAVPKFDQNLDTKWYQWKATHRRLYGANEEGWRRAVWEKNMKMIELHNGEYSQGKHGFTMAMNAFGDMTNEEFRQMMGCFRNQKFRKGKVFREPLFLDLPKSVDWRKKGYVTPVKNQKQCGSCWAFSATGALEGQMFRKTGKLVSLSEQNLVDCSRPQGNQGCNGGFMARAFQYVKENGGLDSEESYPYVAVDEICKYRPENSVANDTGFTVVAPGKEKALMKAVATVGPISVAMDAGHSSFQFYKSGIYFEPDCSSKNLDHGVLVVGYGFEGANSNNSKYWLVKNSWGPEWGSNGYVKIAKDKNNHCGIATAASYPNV

Cathepsin K = molecular target: T2, Cathepsin K (Homo sapiens, UniProt P43235); assay: Inhibition of 10 µM Cbz-Phe-Arg-AMC binding to human cathepsin K in fluorescence assay with 100 mM NaOAc
T2 sequence (P43235 whole entry): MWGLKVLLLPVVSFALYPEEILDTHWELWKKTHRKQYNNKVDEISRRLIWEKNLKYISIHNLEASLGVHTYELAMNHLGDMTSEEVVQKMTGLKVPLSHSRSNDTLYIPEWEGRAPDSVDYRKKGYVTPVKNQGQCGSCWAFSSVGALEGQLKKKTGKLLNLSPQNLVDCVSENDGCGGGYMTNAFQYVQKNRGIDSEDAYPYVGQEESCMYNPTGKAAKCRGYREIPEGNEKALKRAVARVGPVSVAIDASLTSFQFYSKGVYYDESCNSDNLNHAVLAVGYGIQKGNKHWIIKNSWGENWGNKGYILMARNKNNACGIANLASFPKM

[2] = Terminal half-life dosed as a solution in male Han Wistar rat administered i.v.; assay type: ADME, organism-based; conditions: in vivo, iv; for half-life: male, Han Wistar
Procathepsin L = Procathepsin L (Homo sapiens, UniProt P07711); assay: Inhibition of 5 µM Cbz-Phe-Arg-AMC bindign to human cathepsin L activity in fluorescence assay with 100 mM NaOAc
Chain of Procathepsin L (P07711 whole entry): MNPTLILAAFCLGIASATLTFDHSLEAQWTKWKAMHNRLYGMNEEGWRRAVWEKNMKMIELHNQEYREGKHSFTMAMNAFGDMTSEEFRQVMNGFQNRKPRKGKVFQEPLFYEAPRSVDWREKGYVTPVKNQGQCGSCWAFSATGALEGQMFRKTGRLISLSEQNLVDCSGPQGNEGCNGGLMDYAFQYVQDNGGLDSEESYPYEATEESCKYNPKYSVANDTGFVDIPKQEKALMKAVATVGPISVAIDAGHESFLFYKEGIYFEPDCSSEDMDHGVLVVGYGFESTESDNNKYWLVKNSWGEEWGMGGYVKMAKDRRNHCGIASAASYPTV

Cathepsin B = Cathepsin B (Homo sapiens, UniProt P07858); assay: Inhibition of 10 µM Cbz-Phe-Arg-AMC binding to human cathepsin B activity in fluorescence assay with 100 mM NaOAc
[3] = The total clearance after i.v. administration; assay type: ADME, organism-based; conditions: rat, in vivo, iv
[4] = Oral bioavailability (i.v. administration); assay type: ADME, organism-based; conditions: rat, in vivo
[5] = The equilibrium solubility exhibited in a fasted state-simulated intestinal fluid at pH 6.8; assay type: ADME; conditions: human
Cathepsin S = Cathepsin S (Homo sapiens, UniProt P25774); assay: Inhibition of 10 µM Cbz-Val-Val-Arg-AMC binding to human cathepsin S in fluorescence assay with 100 mM NaOAc
Chain of Cathepsin S (P25774 whole entry): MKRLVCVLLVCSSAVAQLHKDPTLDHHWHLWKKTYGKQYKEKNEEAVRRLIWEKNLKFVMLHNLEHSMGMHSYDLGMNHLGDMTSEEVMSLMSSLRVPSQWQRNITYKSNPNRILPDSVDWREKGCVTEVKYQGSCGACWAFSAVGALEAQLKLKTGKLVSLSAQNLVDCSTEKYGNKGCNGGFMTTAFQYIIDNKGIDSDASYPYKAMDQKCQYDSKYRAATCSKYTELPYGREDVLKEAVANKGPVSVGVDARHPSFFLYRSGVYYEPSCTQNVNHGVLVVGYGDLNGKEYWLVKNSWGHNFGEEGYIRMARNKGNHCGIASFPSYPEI

SMILES	Vd [1] [L/kg]	IC50 (Cathepsin L2) [µM]	IC50 (Cathepsin K) [µM]	half-life [2] [h]	IC50 (Procathepsin L) [µM]	IC50 (Cathepsin B) [µM]	clearance [3] [mL/min/kg]	bioavailability [4] [%]	solubility thermodynamic ([5]; read-out: FS-SIF) [µg/mL]	IC50 (Cathepsin S) [µM]	VSS [1] [L/kg]	T1/2 [2] [h]	CL [3] [mL/min/kg]	solubility thermodynamic [5] [µg/mL]
CCCC[C@H](NC(=O)O[C@H](Cc1nnc(-c2ccc(F)cc2)o1)C(C)(C)C)C(=O)C(=O)Nc1ccn[nH]1	3.6	230	0.0049	2.5	3800	3500	33	88	58 (≈ 113 µM)	110	–	–	–	–
CCCC[C@H](NC(=O)O[C@H](Cc1nnc(-c2ccccc2)o1)C(C)(C)C)C(=O)C(=O)N[C@H](C)c1ccccc1	–	1.6	–	–	10	12	–	–	–	0.75	–	–	–	–
CCCC[C@H](NC(=O)O[C@H](Cn1cnc(-c2ccc(C(F)(F)F)cc2)c1)C(C)(C)C)C(=O)C(=O)Nc1nccs1	1.8	36	–	4.67	1000	870	15	43	48 (≈ 82.8 µM)	19	–	–	–	–
CCCC[C@H](NC(=O)O[C@H](Cc1nnc(-c2ccc(C(F)(F)F)cc2)o1)C(C)(C)C)C(=O)C(=O)Nc1ccn[nH]1	1.9	1.2	–	8.83	69	45	11	50	61 (≈ 108 µM)	0.52	–	–	–	–
CCCC[C@H](NC(=O)O[C@H](Cc1nnc(-c2ccc(F)cc2)o1)C(C)(C)C)C(=O)C(=O)N[C@H](C)c1ccccc1	–	34	–	–	33	9.8	–	–	–	0.53	–	–	–	–
CCCC[C@H](NC(=O)O[C@H](Cc1nnc(-c2ccccc2)o1)C(C)(C)CC)C(=O)C(=O)N[C@H](C)c1ccccc1	–	2.8	0.0015	–	17	56	–	–	–	0.72	–	–	–	–
CCCC[C@H](NC(=O)O[C@H](Cn1ccc(-c2ccc(C(F)(F)F)cc2)n1)C(C)(C)C)C(=O)C(=O)Nc1ccccn1	1.8	4.5	0.0081	3.5	240	107	41	34	380 (≈ 662 µM)	3.7	–	–	–	–
CCCC[C@H](NC(=O)O[C@H](Cc1nnc(-c2ccc(F)cc2)o1)C(C)(C)C)C(=O)C(=O)NCc1cccnc1	1.4	14	–	3.83	130	18	11	46	490 (≈ 908 µM)	2.7	–	–	–	–
CCCC[C@H](NC(=O)O[C@H](Cc1nnc(-c2ccccc2)o1)C(C)C)C(=O)C(=O)N[C@H](C)c1ccccc1	–	5.6	0.00083	–	17	31	–	–	–	3.7	–	–	–	–
CCCC[C@H](NC(=O)O[C@H](Cn1cc(-c2ccc(C(F)(F)F)cc2)cn1)C(C)(C)C)C(=O)C(=O)Nc1ccn[nH]1	2.1	0.43	0.032	5.67	36	10	9.1	45	97 (≈ 172 µM)	0.078	–	–	–	–
CCCC[C@H](NC(=O)O[C@H](CN1CCN(c2ccc(C(F)(F)F)cc2)C1=O)C(C)(C)C)C(=O)C(=O)Nc1ccn[nH]1	5	1.7	–	5.67	37	60	55	27	43 (≈ 74.1 µM)	0.54	–	–	–	–
CCCC[C@H](NC(=O)O[C@H](Cn1cnc(-c2ccc(C(F)(F)F)cc2)c1)C(C)(C)C)C(=O)C(=O)Nc1ccn[nH]1	2.4	0.13	–	7.67	10	27	15	55	130 (≈ 231 µM)	0.16	–	–	–	–
CCCC[C@H](NC(=O)O[C@H](Cn1ccc(-c2ccc(C(F)(F)F)cc2)n1)C(C)(C)C)C(=O)C(=O)Nc1ccn[nH]1	–	0.17	0.072	–	8.7	20	–	9.6	110 (≈ 196 µM)	0.21	0.32	1.52	0.11	–
CCCC[C@H](NC(=O)O[C@H](Cc1nnc(-c2ccc(C(F)(F)F)cc2)o1)C(C)(C)C)C(=O)C(=O)N[C@H](C)c1ccccc1	–	5	–	–	190	32	–	–	–	1.6	–	–	–	–
CCCC[C@H](NC(=O)O[C@H](Cn1ccc(-c2ccc(C(F)(F)F)cc2)n1)C(C)(C)C)C(=O)C(=O)NCc1ccno1	1.7	36	0.0058	6.67	1000	870	3.2	40	–	19	–	–	–	180 (≈ 312 µM)
CCCC[C@H](NC(=O)O[C@H](Cc1nnc(-c2ccc(C(F)(F)F)cc2)o1)C(C)(C)C)C(=O)C(=O)NN1CCOC1=O	3.1	7.1	–	6.83	160	5.2	11	79	170 (≈ 291 µM)	1.2	–	–	–	–
CCCC[C@H](NC(=O)OC(Cc1nnc(-c2ccc(F)cc2)o1)C(C)(C)C)C(=O)C(=O)N[C@H]1CCCNC1=O (stereo partly specified)	1.4	1.3	0.00065	2.33	15	6.2	35	17	620 (≈ 1140 µM)	0.81	–	–	–	–

Source: ChEMBL document CHEMBL1142749, “P2-P3 conformationally constrained ketoamide-based inhibitors of cathepsin K” (Bioorg Med Chem Lett, 2005)
